Experimental data published in patent US20060058372A1, “N-Benzodioxolyl, n-benzodioxanyl and n-benzodioxepinyl arylcarboxamide derivatives and pharmaceutical compositions comprising them” (priority 2002, published 2006).

Columns and labels:
[1] = molecular target: T1, microsomal triglyceride transfer protein (MTP) (Mesocricetus auratus, UniProt P55158); assay: Inhibition of MTP activity: transfer of [3H]-triolein from donor liposomes to biotinylated LDL (SPA); type: biochemical; details: MTP from golden hamster liver microsomes; incubation 18-24 hours at 37° C.; read-out: IC50 (concentration that allows a 50% inhibition of MTP)
T1 construct: The supernatant comprising the soluble MTP is dialysed; from tissue; host or cells: golden hamster liver microsomes, deoxycholate-solubilised
T1 sequence (P55158 19-895): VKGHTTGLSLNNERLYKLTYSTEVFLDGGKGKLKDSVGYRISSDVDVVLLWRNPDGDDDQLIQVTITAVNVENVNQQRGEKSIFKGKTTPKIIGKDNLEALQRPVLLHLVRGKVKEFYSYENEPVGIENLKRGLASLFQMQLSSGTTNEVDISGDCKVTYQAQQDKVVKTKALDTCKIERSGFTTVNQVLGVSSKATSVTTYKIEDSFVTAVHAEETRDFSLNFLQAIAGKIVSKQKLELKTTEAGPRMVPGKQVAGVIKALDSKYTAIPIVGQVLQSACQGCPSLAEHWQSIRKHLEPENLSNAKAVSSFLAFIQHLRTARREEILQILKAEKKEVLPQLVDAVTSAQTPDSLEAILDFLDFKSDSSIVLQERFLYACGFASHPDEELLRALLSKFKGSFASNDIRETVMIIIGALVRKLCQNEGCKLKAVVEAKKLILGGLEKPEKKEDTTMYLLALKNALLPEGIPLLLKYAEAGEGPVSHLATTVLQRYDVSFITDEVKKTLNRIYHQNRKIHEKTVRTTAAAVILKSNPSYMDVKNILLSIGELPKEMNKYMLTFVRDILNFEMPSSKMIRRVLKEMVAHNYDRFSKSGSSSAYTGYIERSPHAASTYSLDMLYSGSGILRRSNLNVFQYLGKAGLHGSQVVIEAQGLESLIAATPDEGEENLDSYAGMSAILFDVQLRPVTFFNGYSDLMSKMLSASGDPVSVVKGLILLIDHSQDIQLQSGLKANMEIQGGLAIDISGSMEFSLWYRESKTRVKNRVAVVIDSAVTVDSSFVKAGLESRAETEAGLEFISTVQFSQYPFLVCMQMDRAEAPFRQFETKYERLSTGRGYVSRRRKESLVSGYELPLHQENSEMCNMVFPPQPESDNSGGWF
T1 sequence (Q8R4U2 20-509 partner): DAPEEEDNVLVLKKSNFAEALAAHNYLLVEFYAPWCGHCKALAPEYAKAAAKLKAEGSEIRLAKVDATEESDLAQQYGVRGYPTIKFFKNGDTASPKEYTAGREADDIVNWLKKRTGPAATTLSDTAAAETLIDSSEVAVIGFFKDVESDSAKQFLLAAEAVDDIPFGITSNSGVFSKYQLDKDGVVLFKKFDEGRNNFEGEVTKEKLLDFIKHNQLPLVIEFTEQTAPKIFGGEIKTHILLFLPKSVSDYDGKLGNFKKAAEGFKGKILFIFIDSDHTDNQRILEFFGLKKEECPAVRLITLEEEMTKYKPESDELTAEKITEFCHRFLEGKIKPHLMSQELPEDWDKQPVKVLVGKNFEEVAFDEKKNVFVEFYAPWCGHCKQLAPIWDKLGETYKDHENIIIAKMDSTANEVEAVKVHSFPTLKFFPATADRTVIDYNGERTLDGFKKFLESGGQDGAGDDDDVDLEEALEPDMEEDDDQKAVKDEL
Procedure: Analysis of the Inhibition of MTP Activity
The inhibition of the activity of microsomal triglyceride transfer protein (MTP) was tested by using the following operating protocol.
The inhibition of MTP activity with a compound can be quantified by observing the inhibition of the transfer of a labelled triglyceride, from a donor particle to an acceptor particle, in the presence of MTP. The procedure for the preparation of MTP is based on the method by Wetterau and Zilversmit (Biochem. Biophys. Acta (1986) 875: 610). A few grams of golden hamster liver are taken and then rinsed several times in a 250 mM sucrose solution at 0° C. All the following steps proceed at +4° C. A homogenate at a concentration of 50% in 250 mM sucrose is prepared using a Teflon mill and then centrifuged for 10 minutes at 10 000×g at +4° C. The supernatant is then centrifuged at 105 000×g for 75 minutes at +4° C. The supernatant is discarded and the microsomal pellet is taken up in 3 ml (per g of starting liver) of Tris/HCl 150 mM pH 8.0. 1 ml aliquot fractions are stored at −80° C. until the time of use.
After thawing a fraction of microsomes (1 ml), 12 ml of refrigerated Tris/HCl 50 mM, KCl 50 mM, MgCl2 5 mM pH 7.4 buffers and 1.2 ml of deoxycholate (0.54% in water) are added. After incubation for 30 minutes at +4° C. with gentle agitation, the suspension is centrifuged at 105 000×g for 75 minutes. The supernatant comprising the soluble MTP is dialysed against Tris/HCl 150 mM, NaCl 40 mM, EDTA 1 mM, 0.02% sodium azide pH 7.4 buffer (5 times one litre over 2-3 days). The MTP is stored at +4° C., is stable for at least 30 days and is used in unmodified form in the test.
The donor particles (liposomes) are prepared from 208 μl of L-phosphatidylcholine at a concentration of 10 mg/ml in chloroform, and 480 μl of [3H]-triolein at a concentration of 0.5 mCi/ml in toluene. After stirring, the solution is evaporated under nitrogen, taken up in 6 ml of Tris/HCl 50 mM, KCl 50 mM, MgCl2 5 mM pH 7.4 buffer and incubated in an ultrasound bath for 30 minutes at room temperature. The liposomes are stored at +4° C. and sonicated again for 10 minutes before each use.
The acceptor particles are biotinylated low density lipoproteins (LDL-biot). These particles are supplied by the company Amersham.
The reaction mixture is prepared in untreated ½ well white plates (Corning Costar) by addition, in the following order, of: 5 μl of HEPES 50 mM, NaCl 150 mM, BSA 0.1% (w/v), 0.05% sodium azide (w/v), pH 7.4 buffer; 5 μl of liposomes; 5 μl of LDL-biot; 5 μl of test products in DMSO; 5 μl of MTP. After incubation for 18-24 hours at 37° C., the reaction is stopped by adding 100 μl of Amersham SPA (Scintillation Proximity Assay) beads coupled to streptavidin, and the radioactivity is counted using a Top Count (Packard) at least one hour later. The inhibition of the transfer of the triglycerides with a compound is reflected by a reduction in the transferred radioactivity.
The results are expressed in terms of the IC50, i.e. the concentration that allows a 50% inhibition of MTP.

[2] = system: apo B secretion in HepG2 cells; assay: Inhibition of apo B secretion in the HepG2 human cell line (sandwich ELISA); type: cell-based; details: 24 hours incubation, culture supernatant, ELISA specific for human apo B, read-out: IC50 (concentration that produces a 50% inhibition of apo B secretion in the HepG2 cells)
Procedure: Analysis of the secretion of apo B in the HepG2 human cell line:
The activity of a compound according to the invention can be evaluated by measuring the inhibition of apo B secretion in HepG2 cells.
The HepG2 cells (ECACC—No. 85011430) are used as model in the study of the in vitro hepatic secretion of lipoproteins (Dixon J. and Ginsberg H.-J. Lipid. Res.—1993, 34:167-179).
The HepG2 cells are cultured in Dulbecco's modified Eagle's medium comprising 10% foetal calf serum (DMEM and FBS-Gibco) in 96-well plates under an atmosphere of 5% carbon dioxide for 24 hours (about 70% confluence).
The test compounds are dissolved at a concentration of 2 or 10 mM in dimethyl sulfoxide (DMSO). Serial dilutions (1:3.16) are made in DMSO and are added (1:200—Robot Multimek Beckman) to the growth medium (200 microlitres) and then finally incubated for 24 hours in the various wells containing the HepG2 cells.
The 24-hour culture supernatant diluted to 1:5 (phosphate-buffered saline: PBS comprising 1% bovine serum albumin) is tested according to a sandwich-ELISA method specific for human apo B.
The results are expressed in terms of IC50, i.e. the concentration that produces a 50% inhibition of apo B secretion in the HepG2 cells.

IC50 [1] | IC50 [2] | Compound
230 nM | 68 nM | CC(C)c1ccc(-c2ccccc2C(=O)Nc2ccc3c(c2)OC(F)(F)O3)cc1 [Example 33, (4′-isopropylbiphen-2-yl)-N-(2,2-difluorobenzo[1,3]dioxol-5-yl)carboxamide]
 | 97 nM | CCc1ccc(-c2ccccc2C(=O)Nc2ccc3c(c2)OC(F)(F)O3)cc1 [Example 32, 4′-ethylbiphenyl-2-carboxylic acid (2,2-difluorobenzo[1,3]dioxol-5-yl)-amide]
223 nM | 213 nM | O=C(Nc1ccc2c(c1)OC(F)(F)O2)c1cccc(Cl)c1-c1ccc(OC(F)(F)F)cc1 [Example 91]
220 nM |  | O=C(Nc1ccc2c(c1)OC(F)(F)O2)c1ccccc1-c1ccc(OC(F)(F)F)cc1 [Example 40, 5-(4′-trifluoromethoxybiphen-2-ylcarbonylamino)-2,2-difluorobenzo[1,3]-dioxole]
340 nM |  | CCNC(=O)OCCc1ccc(-c2ccccc2C(=O)Nc2ccc3c(c2)OC(F)(F)O3)cc1 [Example 48, 5-(4′-ethylaminocarbonyloxyethylbiphen-2-ylcarbonylamino)-2,2-difluorobenzo[1,3]dioxole]
 | 72 nM | O=C(Nc1ccc2c(c1)OCO2)c1ccccc1-c1ccc(OC(F)(F)F)cc1 [Example 51, 4′-trifluoromethoxybiphenyl-2-carboxylic acid benzo[1,3]dioxol-5-ylamide]
44 nM | 30 nM | CC(C)c1ccc(-c2c(Cl)cccc2C(=O)Nc2ccc3c(c2)OC(F)(F)O3)cc1 [Example 90]
270 nM |  | CCc1ccc(-c2cccc(C)c2C(=O)Nc2ccc3c(c2)OC(F)(F)O3)cc1 [Example 42, 5-(4′-ethyl-3-methylbiphen-2-ylcarbonylamino)-2,2-difluorobenzo[1,3]-dioxole]
136 nM | 302 nM | Cc1cccc(-c2ccc(OC(F)(F)F)cc2)c1C(=O)Nc1ccc2c(c1)OC(F)(F)O2 [Example 49, 5-(4′-trifluoromethoxy-3-methylbiphen-2-ylcarbonylamino)-2,2-difluorobenzo[1,3]dioxole]
 | 219 nM | CC(C)Cc1ccc(-c2ccccc2C(=O)Nc2ccc3c(c2)OC(F)(F)O3)cc1 [Example 57, 4′-isobutylbiphenyl-2-carboxylic acid (2,2-difluorobenzo[1,3]dioxol-5-yl)-amide]
 | 288 nM | CC(C)=Cc1ccc(-c2ccccc2C(=O)Nc2ccc3c(c2)OC(F)(F)O3)cc1 [Example 69, 4′-(2-methylpropenyl)biphenyl-2-carboxylic acid (2,2-difluorobenzo[1,3]-dioxol-5-yl)amide]

The remaining lines, values behind:

Compound | IC50 [1] | IC50 [2]
CCNC(=O)OCC1COc2ccc(NC(=O)c3ccccc3-c3ccc(C(C)C)cc3)cc2O1 (stereo not drawn) [Example 21, 7-[(4′-isopropylbiphenyl-2-carbonyl)amino]-2,3-dihydrobenzo[1,4]dioxin-2-ylmethyl ethylcarbamate] |  | 197 nM
COCC1COc2ccc(NC(=O)c3ccccc3-c3ccc(C(C)C)cc3)cc2O1 (stereo not drawn) [Example 20, 4′-isopropylbiphenyl-2-carboxylic acid (3-methoxymethyl-2,3-dihydrobenzo[1,4]dioxin-6-yl)amide] |  | 65 nM
COc1cccc(C(=O)Nc2ccc3c(c2)OC(F)(F)O3)c1-c1ccc(OC(F)(F)F)cc1 [Example 94] | 193 nM | 66 nM
Cc1cccc(C(=O)Nc2ccc3c(c2)OC(F)(F)O3)c1-c1ccc(CCOCc2ccccc2)cc1 [Example 93, 4′-(2-benzyloxyethyl)-6-methylbiphenyl-2-carboxylic acid (2,2-difluorobenzo[1,3]dioxol-5-yl)amide] | 61 nM | 65 nM
CC(C)c1ccc(-c2ccccc2C(=O)Nc2ccc3c(c2)OCO3)cc1 [Example 41, 5-(4′-isopropylbiphen-2-ylcarbonylamino)benzo[1,3]dioxole] |  | 129 nM
CCNC(=O)OCCc1ccc(-c2c(C)cccc2C(=O)Nc2ccc3c(c2)OC(F)(F)O3)cc1 [Example 98] | 312 nM | 
O=C(Nc1ccc2c(c1)OC(F)(F)O2)c1ccccc1-c1ccc(CCO)cc1 [Example 53, 4′-(2-hydroxyethyl)biphenyl-2-carboxylic acid (2,2-difluorobenzo[1,3]-dioxol-5-yl)amide] |  | 195 nM
